Where two headings read alike, the source gives them in different places.
Columns and labels:
[1] = system: HCV replicon in cell line ET (luc-ubi-neo/ET), Huh7 human hepatoma; assay: HCV subgenomic replicon assay, luciferase end point; type: cell-based; conditions: Hepatitis C virus, read-out: Antiviral activity EC50
[2] = system: HIV-1IIIB in CEM-SS cells; assay: Anti-HIV cytoprotection assay, acute infection model, MTS endpoint; type: cell-based; conditions: Table 17, HIV-1IIIB in CEM-SS cells, 6-day incubation, read-out: Antiviral activity EC50
Protocol: Anti-HIV activity of cyclosporine derivatives were evaluated by cytoprotection assay in an acute infection model using CEM-SS cells and either HIV-1IIIB or HIV-1 RF. Antiviral activity was determined as a reduction in virus-caused cytopathic effects when compounds prevent virus replication. Cytoprotection and compound cytotoxicity were evaluated using the tetrazollium dye MTS (Promega) to calculate cell viability following virus infection after 6-day incubation (Zhou G., et al., 2011, J. Med. Chem. 27, 7220-31; which is incorporated herein by reference).

[3] = Stability testing: epimerization of cyclosporin derivatives in methanol, monitored by HPLC; type: physicochemical; conditions: for Epimerization %: Table 10, MeOH at 50° C.
[4] = Human immunodeficiency virus 1, 144 h

Epimerization % ([3]; 29 hours)	Epimerization % ([3]; 77 hours)	Epimerization % ([3]; 125 hours)	SMILES	also measured
0%	Less than 1%	~12%	C/C=C/C[C@@H](C)[C@@H](O)[C@H]1C(=O)N[C@@H](CC)C(=O)N(C)[C@H](SCCCN(CC)CC)C(=O)N(C)[C@@H](CC(C)(C)O)C(=O)N[C@@H](C(C)C)C(=O)N(C)[C@@H](CC(C)C)C(=O)N[C@@H](C)C(=O)N[C@H](C)C(=O)N(C)[C@@H](CC(C)C)C(=O)N(C)[C@@H](CC(C)C)C(=O)N(C)[C@@H](C(C)C)C(=O)N1C	
0%	0%	0%	C/C=C/C[C@@H](C)[C@@H](O)[C@H]1C(=O)N[C@@H](CC)C(=O)N(C)[C@H](SCCCN(CC)CC)C(=O)N(C)[C@@H](CC(C)(C)OC)C(=O)N[C@@H](C(C)C)C(=O)N(C)[C@@H](CC(C)C)C(=O)N[C@@H](C)C(=O)N[C@H](C)C(=O)N(C)[C@@H](CC(C)C)C(=O)N(C)[C@@H](CC(C)C)C(=O)N(C)[C@@H](C(C)C)C(=O)N1C	

Further lines, the molecule ahead of its results:

SMILES	Epimerization % ([3]; 29 hours)	Epimerization % ([3]; 77 hours)	Epimerization % ([3]; 125 hours)	also measured
C/C=C/C[C@@H](C)[C@@H](O)[C@H]1C(=O)N[C@@H](CC)C(=O)N(C)[C@H](CSCCN2CCOCC2)C(=O)N(C)[C@@H](CC(C)(C)O)C(=O)N[C@@H](C(C)C)C(=O)N(C)[C@@H](CC(C)C)C(=O)N[C@@H](C)C(=O)N[C@H](C)C(=O)N(C)[C@@H](CC(C)C)C(=O)N(C)[C@@H](CC(C)C)C(=O)N(C)[C@@H](C(C)C)C(=O)N1C [[(S)-(2-(N-Morpholino)ethylthio)methyl-Sar]-3-[(γ-hydroxy)-N-MeLeu]-4-cyclosporin]				EC50 ([1]; Huh-7, HCV subgenomic replicon, cell line ET (luc-ubi-neo/ET) Huh7, luciferase end point): 60 nM; EC50 ([1]; Huh-7, Table 14, HCV replicon luciferase): 20 nM; EC50 [2, 4]: 94.9 nM
Cc1cn([C@H]2C[C@H](N=[N+]=[N-])[C@@H](CO)O2)c(=O)[nH]c1=O [AZT]				EC50 [2]: 9 nM
C/C=C/C[C@@H](C)[C@@H](O)[C@H]1C(=O)N[C@@H](CC)C(=O)N(C)[C@H](SCCN(C)C)C(=O)N(C)[C@@H](CC(C)C)C(=O)N[C@@H](C(C)C)C(=O)N(C)[C@@H](CC(C)C)C(=O)N[C@@H](C)C(=O)N[C@H](C)C(=O)N(C)[C@@H](CC(C)C)C(=O)N(C)[C@@H](CC(C)C)C(=O)N(C)[C@@H](C(C)C)C(=O)N1C [drawing 1933]	~26%	~32%	~35%	
C/C=C/C[C@@H](C)[C@@H](O)[C@H]1C(=O)N[C@@H](CC)C(=O)N(C)[C@H](SCCCN2CCOCC2)C(=O)N(C)[C@@H](CC(C)(C)OC)C(=O)N[C@@H](C(C)C)C(=O)N(C)[C@@H](CC(C)C)C(=O)N[C@@H](C)C(=O)N[C@H](C)C(=O)N(C)[C@@H](CC(C)C)C(=O)N(C)[C@@H](CC(C)C)C(=O)N(C)[C@@H](C(C)C)C(=O)N1C [drawing 1937]	0%	0%	0%	
C/C=C/C[C@@H](C)[C@@H](O)[C@H]1C(=O)N[C@@H](CC)C(=O)N(C)[C@H](CSCCN(C)C)C(=O)N(C)[C@@H](CC(C)(C)O)C(=O)N[C@@H](C(C)C)C(=O)N(C)[C@@H](CC(C)C)C(=O)N[C@@H](C)C(=O)N[C@H](C)C(=O)N(C)[C@@H](CC(C)C)C(=O)N(C)[C@@H](CC(C)C)C(=O)N(C)[C@@H](C(C)C)C(=O)N1C (single isomer, unassigned)				EC50 [2, 4]: 118 nM
C/C=C/C[C@@H](C)[C@@H](O)[C@H]1C(=O)N[C@@H](CC)C(=O)N(C)[C@H](CSCCN(C)C)C(=O)N(C)[C@@H](CC(C)C)C(=O)N[C@@H](C(C)C)C(=O)N(C)[C@@H](CC(C)C)C(=O)N[C@@H](C)C(=O)N[C@H](C)C(=O)N(C)[C@@H](CC(C)C)C(=O)N(C)[C@@H](CC(C)C)C(=O)N(C)[C@@H](C(C)C)C(=O)N1C (single isomer, unassigned)				Epimerization % after 168 hours ([3]; Table 11, MeOH at 50° C.-58° C., 168 hours): 0%

— patent US10647747B2, “Cyclosporin derivatives and uses thereof” (S&T Global Inc., priority 2010, dated 2020)
